From patent publication US8044069B2, “Compounds as calcium channel blockers” (Abbott Laboratories, priority 2008, dated 2011) come the findings set out here.

In one assay the test system is Sprague Dawley rats. Briefly: Capsaicin induced secondary mechanical hyperalgesia model. It is filed as in vivo. Conditions: Rattus norvegicus, po, 1 h; 30 mg/kg p.o., 60 minutes before testing; secondary mechanical hyperalgesia 180 minutes after capsaicin; von Frey paw withdrawal threshold. The method, then:
(ii) In Vivo Data—Capsaicin Induced Secondary Mechanical Hyperalgesia Model:
Sprague Dawley rats were briefly restrained, and capsaicin was administered at 10 μg in 10 μL of vehicle by intraplantar injection into the center of the right hind paw. Secondary mechanical hyperalgesia (SMH) was measured at the heel away from the site of injection 180 minutes following capsaicin exposure. Compounds and gabapentin (positive control), were administered p.o. 60 minutes before testing (2 hours after capsaicin) or i.p. 30 minutes before testing (2.5 hours after capsaicin). SMH was measured using calibrated von Frey filaments (Stoelting, Woodale, Ill.). Following the 1 hour habituation in the testing room, rats were moved to individual plexiglass chambers that sit on top of a wire mesh to allow for access for stimulation of the plantar surface of the hind paws. Rats were allowed to acclimate to the new chambers for 15 minutes before the onset of testing. The paw withdrawal threshold was determined by increasing and decreasing stimulus intensity (force: g) and calculated using Dixon's up-down method (Chaplan, S. R.; Bach, F. W.; Pogrel, J. W.; Chung, J. M.; Yaksh, T. L.; Quantitative assessment of tactile allodynia in the rat paw. J. Neuroscience Methods 1994, 53(1), 55-63). The filaments (maximum force of 15.0 g) were held in place for 8 seconds or until there was a withdrawal response from the mechanical stimulation.

The target of another assay is human Cav2.2 (Homo sapiens, UniProt Q00975). Description: Assessment of calcium channel activity using FLIPR (Ca2+ influx in IMR32 cells). It is filed as cell-based. Conditions: IMR32 cells endogenously expressing human Cav2.2; 60 minute pre-incubation; 2 μM nifedipine; depolarized with 80 mM KCl, 5 mM CaCl2. The method, boiled down:
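FLIPR measured Ca2+ influx triggered by 80 mM KCl depolarization together with a step to 5 mM external CaCl2. Percent inhibition relative to uninhibited activity was fitted sigmoidally for IC50.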

Chain of human Cav2.2 (Q00975 whole entry): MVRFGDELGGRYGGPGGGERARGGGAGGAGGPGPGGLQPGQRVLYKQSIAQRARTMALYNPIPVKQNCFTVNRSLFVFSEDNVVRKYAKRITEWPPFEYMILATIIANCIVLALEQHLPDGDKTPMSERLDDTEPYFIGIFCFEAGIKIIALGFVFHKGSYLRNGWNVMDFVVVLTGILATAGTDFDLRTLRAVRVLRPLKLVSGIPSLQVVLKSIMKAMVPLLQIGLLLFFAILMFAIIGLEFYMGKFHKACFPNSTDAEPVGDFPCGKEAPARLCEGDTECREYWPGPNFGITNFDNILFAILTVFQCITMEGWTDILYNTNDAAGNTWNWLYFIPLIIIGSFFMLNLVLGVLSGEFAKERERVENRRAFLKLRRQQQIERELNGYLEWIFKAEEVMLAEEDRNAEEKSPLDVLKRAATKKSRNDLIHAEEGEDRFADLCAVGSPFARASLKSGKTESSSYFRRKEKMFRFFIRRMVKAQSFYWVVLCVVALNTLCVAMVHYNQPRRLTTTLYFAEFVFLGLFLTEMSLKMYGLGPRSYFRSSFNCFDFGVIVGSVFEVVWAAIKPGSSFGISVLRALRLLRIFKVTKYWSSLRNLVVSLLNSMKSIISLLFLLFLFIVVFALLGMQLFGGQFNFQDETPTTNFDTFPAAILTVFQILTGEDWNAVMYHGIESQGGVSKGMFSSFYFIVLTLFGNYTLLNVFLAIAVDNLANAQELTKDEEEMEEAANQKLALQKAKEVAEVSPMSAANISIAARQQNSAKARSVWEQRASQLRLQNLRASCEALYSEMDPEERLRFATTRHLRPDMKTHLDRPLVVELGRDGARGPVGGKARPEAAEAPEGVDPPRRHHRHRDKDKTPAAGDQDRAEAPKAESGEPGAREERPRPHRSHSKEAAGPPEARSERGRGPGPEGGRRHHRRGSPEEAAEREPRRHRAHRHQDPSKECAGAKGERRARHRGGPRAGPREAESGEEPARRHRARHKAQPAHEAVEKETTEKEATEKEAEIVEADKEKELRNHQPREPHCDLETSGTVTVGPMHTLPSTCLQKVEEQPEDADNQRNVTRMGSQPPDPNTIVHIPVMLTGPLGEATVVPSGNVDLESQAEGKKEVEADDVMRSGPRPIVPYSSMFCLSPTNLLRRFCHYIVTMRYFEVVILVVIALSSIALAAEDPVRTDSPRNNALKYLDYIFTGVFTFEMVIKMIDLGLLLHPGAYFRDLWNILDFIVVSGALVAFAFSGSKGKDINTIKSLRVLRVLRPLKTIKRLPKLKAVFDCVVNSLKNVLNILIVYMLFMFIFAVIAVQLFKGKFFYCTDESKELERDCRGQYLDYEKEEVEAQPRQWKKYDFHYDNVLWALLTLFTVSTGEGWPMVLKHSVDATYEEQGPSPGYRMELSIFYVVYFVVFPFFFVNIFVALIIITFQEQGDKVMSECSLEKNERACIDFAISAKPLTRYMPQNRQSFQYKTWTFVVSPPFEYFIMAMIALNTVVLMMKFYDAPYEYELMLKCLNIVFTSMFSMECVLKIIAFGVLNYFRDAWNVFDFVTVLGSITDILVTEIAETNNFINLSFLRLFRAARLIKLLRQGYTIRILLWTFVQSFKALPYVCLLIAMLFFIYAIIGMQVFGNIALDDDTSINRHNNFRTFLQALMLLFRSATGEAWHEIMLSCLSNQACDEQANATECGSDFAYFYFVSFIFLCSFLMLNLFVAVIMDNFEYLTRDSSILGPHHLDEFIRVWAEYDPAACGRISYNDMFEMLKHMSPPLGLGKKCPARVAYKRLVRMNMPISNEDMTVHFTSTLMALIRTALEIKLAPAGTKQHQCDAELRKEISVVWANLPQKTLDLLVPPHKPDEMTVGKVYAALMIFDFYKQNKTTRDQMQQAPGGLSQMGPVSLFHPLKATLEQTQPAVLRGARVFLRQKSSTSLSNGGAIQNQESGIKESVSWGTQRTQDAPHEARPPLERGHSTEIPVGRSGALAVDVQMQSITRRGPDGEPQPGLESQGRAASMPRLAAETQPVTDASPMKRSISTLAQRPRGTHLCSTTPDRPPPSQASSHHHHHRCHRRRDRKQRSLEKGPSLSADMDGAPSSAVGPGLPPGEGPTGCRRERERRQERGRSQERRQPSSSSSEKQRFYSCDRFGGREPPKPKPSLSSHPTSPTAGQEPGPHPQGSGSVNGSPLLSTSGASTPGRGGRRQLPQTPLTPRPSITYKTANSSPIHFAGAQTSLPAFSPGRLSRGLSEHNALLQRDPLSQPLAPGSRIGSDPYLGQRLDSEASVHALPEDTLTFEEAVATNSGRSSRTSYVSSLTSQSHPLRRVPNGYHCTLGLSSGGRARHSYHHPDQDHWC
Chain of human Cav2.2 (P54289 25-951 partner limits assumed): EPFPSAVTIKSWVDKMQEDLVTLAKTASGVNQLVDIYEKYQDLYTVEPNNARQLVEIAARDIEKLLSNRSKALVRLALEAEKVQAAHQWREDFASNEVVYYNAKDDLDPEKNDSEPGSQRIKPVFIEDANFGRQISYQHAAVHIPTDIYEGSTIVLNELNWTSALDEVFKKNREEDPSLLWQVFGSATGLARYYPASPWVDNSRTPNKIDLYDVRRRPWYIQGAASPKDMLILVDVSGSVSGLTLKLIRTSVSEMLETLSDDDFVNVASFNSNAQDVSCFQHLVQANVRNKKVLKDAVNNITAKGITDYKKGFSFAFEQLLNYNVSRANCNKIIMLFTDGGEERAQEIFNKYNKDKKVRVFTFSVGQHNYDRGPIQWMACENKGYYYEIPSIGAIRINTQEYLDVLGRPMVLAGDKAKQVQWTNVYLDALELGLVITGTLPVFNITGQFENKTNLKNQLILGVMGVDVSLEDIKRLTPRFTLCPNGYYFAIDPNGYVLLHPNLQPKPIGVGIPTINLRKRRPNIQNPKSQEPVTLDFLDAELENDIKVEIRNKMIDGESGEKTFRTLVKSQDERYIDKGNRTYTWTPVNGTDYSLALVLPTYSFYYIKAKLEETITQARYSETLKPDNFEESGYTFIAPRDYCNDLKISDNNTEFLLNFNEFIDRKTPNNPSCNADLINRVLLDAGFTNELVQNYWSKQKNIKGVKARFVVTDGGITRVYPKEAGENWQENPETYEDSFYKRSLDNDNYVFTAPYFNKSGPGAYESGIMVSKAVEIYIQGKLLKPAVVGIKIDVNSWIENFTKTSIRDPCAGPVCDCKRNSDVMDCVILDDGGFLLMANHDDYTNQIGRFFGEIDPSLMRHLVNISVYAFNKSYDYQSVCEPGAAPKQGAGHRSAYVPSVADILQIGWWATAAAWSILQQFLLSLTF
Chain of human Cav2.2 (P54289 952-1103 partner limits assumed): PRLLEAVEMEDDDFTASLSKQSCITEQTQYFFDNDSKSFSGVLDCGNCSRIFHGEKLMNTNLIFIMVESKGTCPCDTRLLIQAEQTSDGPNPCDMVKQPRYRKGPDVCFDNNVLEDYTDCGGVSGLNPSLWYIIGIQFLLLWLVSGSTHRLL
Chain of human Cav2.2 (P54284 whole entry partner): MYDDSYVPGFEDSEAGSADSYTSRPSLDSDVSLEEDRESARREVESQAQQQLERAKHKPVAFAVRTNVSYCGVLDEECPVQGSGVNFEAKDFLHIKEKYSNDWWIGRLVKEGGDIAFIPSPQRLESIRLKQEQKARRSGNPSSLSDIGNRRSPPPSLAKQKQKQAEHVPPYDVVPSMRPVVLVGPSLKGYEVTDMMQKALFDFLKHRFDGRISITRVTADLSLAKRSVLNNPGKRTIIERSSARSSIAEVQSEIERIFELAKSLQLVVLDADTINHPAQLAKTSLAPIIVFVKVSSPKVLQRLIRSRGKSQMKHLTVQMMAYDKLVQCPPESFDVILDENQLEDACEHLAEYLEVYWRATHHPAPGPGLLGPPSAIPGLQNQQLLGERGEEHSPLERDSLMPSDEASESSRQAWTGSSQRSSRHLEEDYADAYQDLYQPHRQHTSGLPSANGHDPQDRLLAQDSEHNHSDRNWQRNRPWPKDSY

The term inhibition in vivo denotes the drop in the measured response relative to a control, in per cent. The low end stands for a weak effect, the high end for a strong effect. For orientation: IC50 means the concentration at which inhibition is half-maximal. As for `O=C(CN1CCC(c2ccccc2)(c2ccccc2)C1=O)N1CCN(C(c2ccc(F)cc2)c2ccc(F)cc2)CC1` [Example 45, 1-(2-{4-[bis(4-fluorophenyl)methyl]piperazin-1-yl}-2-oxoethyl)-3,3-diphenylpyrrolidin-2-one], the inhibition in vivo at 30 mg/kg in the assay on Sprague Dawley rats is 51%. Further, the IC50 at human Cav2.2 was found to be 430 nM. For `O=C(CN1CCC(c2ccccc2)(c2ccccc2)C1=O)N1CCN(C(c2ccccc2)c2ccccc2)CC1` [Example 1, 1-[2-(4-benzhydrylpiperazin-1-yl)-2-oxoethyl]-3,3-diphenylpyrrolidin-2-one], in that order: 61% and 1100 nM. The corresponding values for `O=C(CN1CCCC(c2ccccc2)(c2ccccc2)C1=O)N1CCN(Cc2cccc(C(F)(F)F)c2)CC1` [Example 79, 1-(2-oxo-2-{4-[3-(trifluoromethyl)benzyl]piperazin-1-yl}ethyl)-3,3-diphenylpiperidin-2-one] are 49% and 930 nM.

On to `O=C(CN1CCC(c2ccccc2)(c2ccccc2)C1=O)N1CCC(c2ccccc2)(c2ccccc2)C1` [Example 17, 1-[2-(3,3-diphenylpyrrolidin-1-yl)-2-oxoethyl]-3,3-diphenylpyrrolidin-2-one], for which the inhibition in vivo at 30 mg/kg in the assay on Sprague Dawley rats was determined as 50%. The IC50 at human Cav2.2 stood at 780 nM.

For `O=C(CN1CCC(c2ccc(F)cc2)C1=O)N1Cc2ccc(C(F)(F)F)cc2C1` (single isomer, unassigned; (+)) [Example 264, (+)-3-(4-fluorophenyl)-1-{2-oxo-2-[5-(trifluoromethyl)-1,3-dihydro-2H-isoindol-2-yl]ethyl}pyrrolidin-2-one], at 30 mg/kg the inhibition in vivo with Sprague Dawley rats was 49%. The IC50 on human Cav2.2 amounted to 14100 nM. For `O=C(CN1CCC(c2ccc(F)cc2)(c2ccc(F)cc2)C1=O)N1CCN(C(c2ccccc2)c2ccccc2)CC1` [Example 58, 1-[2-(4-benzhydrylpiperazin-1-yl)-2-oxoethyl]-3,3-bis(4-fluorophenyl)pyrrolidin-2-one], in that order: 97% and 830 nM. For `O=C(CN1CCCC(c2ccccc2)(c2ccccc2)C1=O)N1CCN(C(c2ccccc2)c2ccccc2)CC1` [Example 68, 1-[2-(4-benzhydrylpiperazin-1-yl)-2-oxoethyl]-3,3-diphenylpiperidin-2-one], in that order: 71% and 1380 nM. The corresponding values for `O=C(CN1CCCC(c2ccccc2)C1=O)N1CCN(C(c2ccccc2)c2ccccc2)CC1` (stereo not shown) [Example 91, 1-[2-(4-benzhydrylpiperazin-1-yl)-2-oxoethyl]-3-phenylpiperidin-2-one] are 58% and 2180 nM. `O=C(CN1CCC(c2ccccc2)(c2ccccc2)C1=O)N1CCN(C(c2ccccc2)c2ccccc2)C(=O)C1` [Example 28, 1-benzhydryl-4-[(2-oxo-3,3-diphenylpyrrolidin-1-yl)acetyl]piperazin-2-one] returned an inhibition in vivo at 30 mg/kg with Sprague Dawley rats of 60%. The IC50 at human Cav2.2 is 1090 nM. The corresponding values for `O=C(CN1CCCC(c2ccccc2)(c2ccccc2)C1=O)N1CCC(c2ccccc2)(c2ccccc2)CC1` [Example 72, 1-[2-(4,4-diphenylpiperidin-1-yl)-2-oxoethyl]-3,3-diphenylpiperidin-2-one] are 78% and 660 nM. The corresponding values for `O=C(CN1CCC(c2ccccc2)(c2ccccc2)C1=O)NC1CCN(Cc2cccc(C(F)(F)F)c2)CC1` [Example 41, 2-(2-oxo-3,3-diphenylpyrrolidin-1-yl)-N-{1-[3-(trifluoromethyl)benzyl]piperidin-4-yl}acetamide] are 75% and 780 nM. In the case of `O=C(CN1CCCC(c2ccccc2)(c2ccccc2)C1=O)NC1CCN(C(c2ccccc2)c2ccccc2)CC1` [Example 85, N-(1-benzhydrylpiperidin-4-yl)-2-(2-oxo-3,3-diphenylpiperidin-1-yl)acetamide], the IC50 at human Cav2.2 is 410 nM. Same read-out and setting: the result for `O=C(CN1CCC(c2ccccc2)(c2ccccc2)C1=O)N1CCC[C@H]2CN(C(c3ccccc3)c3ccccc3)C[C@H]21` [Example 50, 1-{2-[(4aS,7aS)-6-benzhydryloctahydro-1H-pyrrolo[3,4-b]pyridin-1-yl]-2-oxoethyl}-3,3-diphenylpyrrolidin-2-one] reads 2620 nM. For the molecule `O=C1N(CCN2CCN(c3cccc(C(F)(F)F)c3)CC2)CCCC1(c1ccccc1)c1ccccc1` [Example 141, 3,3-diphenyl-1-(2-{4-[3-(trifluoromethyl)phenyl]piperazin-1-yl}ethyl)piperidin-2-one], the IC50 at human Cav2.2 came to 1560 nM.
